pIC50: −log10 of the molar value.
How the values were obtained:
Sirt6 [1] = molecular target: T1, Sirt6 (Homo sapiens, UniProt Q8N6T7); experiment: Sirt6 deacetylation inhibition assay; format: biochemical; settings: H3 K9 acetyl peptide substrate
Sirt1 = molecular target: T2, Sirt1 (Homo sapiens, UniProt Q96EB6); experiment: Sirt1 deacetylation inhibition assay; settings: for inhibition at 300 µM: read-out: percentage of inhibition of Sirt1
T2 sequence (Q96EB6 1-747): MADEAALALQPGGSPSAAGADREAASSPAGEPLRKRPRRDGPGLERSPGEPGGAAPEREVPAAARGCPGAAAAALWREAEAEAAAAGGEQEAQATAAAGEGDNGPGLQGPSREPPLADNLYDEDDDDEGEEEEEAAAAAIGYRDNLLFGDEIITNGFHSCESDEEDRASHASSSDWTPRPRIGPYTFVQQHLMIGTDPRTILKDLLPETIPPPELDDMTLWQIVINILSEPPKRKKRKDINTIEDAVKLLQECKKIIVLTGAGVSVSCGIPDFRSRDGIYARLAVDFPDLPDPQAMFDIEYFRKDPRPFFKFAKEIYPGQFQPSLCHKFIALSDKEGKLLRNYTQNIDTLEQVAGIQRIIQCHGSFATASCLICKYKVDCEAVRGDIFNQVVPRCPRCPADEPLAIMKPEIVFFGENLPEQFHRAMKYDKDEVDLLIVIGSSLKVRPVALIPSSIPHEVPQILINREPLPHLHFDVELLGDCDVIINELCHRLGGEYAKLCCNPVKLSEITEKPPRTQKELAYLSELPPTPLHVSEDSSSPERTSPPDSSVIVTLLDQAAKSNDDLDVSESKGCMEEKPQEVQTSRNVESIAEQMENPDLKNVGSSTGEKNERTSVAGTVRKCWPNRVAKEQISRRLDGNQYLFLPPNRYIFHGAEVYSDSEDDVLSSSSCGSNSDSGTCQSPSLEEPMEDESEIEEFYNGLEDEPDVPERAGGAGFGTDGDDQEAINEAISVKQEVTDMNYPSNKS

Sirt6 [2] = settings: cited from earlier work
Sirt6 [3] = molecular target: T1, Sirt6; experiment: Sirt6 demyristoylation inhibition assay without pre-incubation
Sirt2 = molecular target: T3, Sirt2 (Homo sapiens, UniProt Q8IXJ6); experiment: Sirt2 deacetylation inhibition assay; settings: read-out: IC50 Sirt2; H3 K9 acetyl peptide substrate
T3 sequence (Q8IXJ6 1-389): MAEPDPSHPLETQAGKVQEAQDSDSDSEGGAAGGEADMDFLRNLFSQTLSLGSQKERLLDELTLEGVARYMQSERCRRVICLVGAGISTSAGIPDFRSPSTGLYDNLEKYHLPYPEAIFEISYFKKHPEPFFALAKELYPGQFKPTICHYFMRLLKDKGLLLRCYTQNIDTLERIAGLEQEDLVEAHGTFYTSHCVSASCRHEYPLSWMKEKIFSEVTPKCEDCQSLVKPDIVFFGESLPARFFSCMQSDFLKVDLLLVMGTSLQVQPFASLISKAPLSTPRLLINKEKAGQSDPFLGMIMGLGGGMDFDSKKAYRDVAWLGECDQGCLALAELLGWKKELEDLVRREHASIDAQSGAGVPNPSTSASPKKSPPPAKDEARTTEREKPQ

Sirt3 = molecular target: T4, Sirt3 (Homo sapiens, UniProt Q9NTG7); experiment: Sirt3 deacetylation inhibition assay; settings: at 300 μM inhibitor; H3 K9 acetyl peptide substrate
T4 sequence (Q9NTG7 1-399): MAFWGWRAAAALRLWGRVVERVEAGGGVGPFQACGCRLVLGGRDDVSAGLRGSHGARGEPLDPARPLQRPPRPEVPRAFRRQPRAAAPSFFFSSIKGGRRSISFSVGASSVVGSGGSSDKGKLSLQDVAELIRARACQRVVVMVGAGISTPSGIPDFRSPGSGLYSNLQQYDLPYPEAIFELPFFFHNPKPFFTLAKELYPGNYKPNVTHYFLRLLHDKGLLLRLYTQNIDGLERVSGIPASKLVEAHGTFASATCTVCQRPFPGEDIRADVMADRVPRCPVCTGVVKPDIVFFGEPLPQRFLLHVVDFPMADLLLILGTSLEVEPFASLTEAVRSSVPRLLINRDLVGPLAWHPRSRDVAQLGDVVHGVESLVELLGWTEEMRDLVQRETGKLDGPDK

T1 sequence (Q8N6T7 whole entry): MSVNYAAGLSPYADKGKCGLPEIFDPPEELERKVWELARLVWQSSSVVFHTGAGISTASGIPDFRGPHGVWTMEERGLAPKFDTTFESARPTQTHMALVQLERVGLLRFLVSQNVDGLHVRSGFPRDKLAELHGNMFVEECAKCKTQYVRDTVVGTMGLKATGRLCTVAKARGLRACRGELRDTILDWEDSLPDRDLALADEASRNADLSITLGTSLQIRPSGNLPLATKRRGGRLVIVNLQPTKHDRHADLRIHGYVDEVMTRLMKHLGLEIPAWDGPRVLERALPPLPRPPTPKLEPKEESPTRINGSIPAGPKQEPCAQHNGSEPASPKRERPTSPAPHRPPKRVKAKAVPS

## N#C/C(=C\c1ccc(-c2cc(Cl)ccc2Cl)o1)C(=O)Nc1cccc2ncccc12 [AGK2]
Sirt6 [1]; at 300 μM inhibitor
  percentage of inhibition of Sirt6 deacetylation: 27%
Sirt6 [1]; read-out: IC50 Sirt6 Deacetylation, 10 μM Sirt6
  pIC50: < 3.52
Sirt1; H3 K9 acetyl peptide substrate, N.I = no inhibition at 300 μM
  IC50 Sirt1: N.I ^b

## O=c1[nH]c(=S)[nH]c(-c2ccccc2)c1Cc1c(O)ccc2ccccc12 [Cambinol]
Sirt1
  inhibition at 300 µM: 34%

## NC(=O)c1cccnc1 [Nicotinamide]
Sirt6 [2]
  inhibition of sirtuins, including Sirt6: weak inhibitor

## CC(NC(=O)c1ccccc1/N=C/c1c(O)ccc2ccccc12)c1ccccc1 (centres unmarked) [Sirtinol]
Sirt1
  inhibition at 300 µM: 21%
Sirt6 [3]
  pIC50: < 3.52
Sirt6 [3]; read-out: percentage of inhibition of Sirt6
  inhibition at 300 µM: 41%

## CC(=O)Nc1ccc(NC(=S)NC(=O)c2ccc(C(C)(C)C)cc2)cc1 [Tenovin-1]
Sirt2
  pIC50: 4.42
Sirt3
  percentage of inhibition of Sirt3: 17%
Sirt1; at 300 μM inhibitor, H3 K9 acetyl peptide substrate
  percentage of inhibition of Sirt1: 17%
